From patent US4863969A, “Treatment of premalignant lesions and certain malignant tumors” (priority 1985, dated 1989)
Read-outs that look alike come from different tables or passages of the source.

What was measured:
[1] = tested on: chemically-induced breast tumors; assay: Prevention of chemically-induced (dimethyl-benz(a)anthracene) breast tumors in female rats; type: in vivo, female Sprague-Dawley rats; settings: in feed, 11 weeks
Protocol: (A) The activity of compound Ia with respect to the prevention of chemically-induced breast tumors was determined according to the following procedure. Female Sprague-Dawley rats were used in this experiment. The experimental animals were kept under temperature-controlled and light-controlled conditions and had free access to drinking water and feed. At the age of 50 days 15 mg of dimethyl-benz(a)anthracene dissolved in arachis oil were administered to each rat by means of a probang. The treatment with compound Ia began 1 day after the administration of the carcinogen. The body weight of the experimental animals was recorded and the tumors were palpated weekly and measured with a vernier caliper. The volumes were calculated according to the formula D/2·d^2 in which D represents the larger diameter of the tumor ellipsoid and d represents the smaller diameter of the tumor ellipsoid. After 11 weeks the experiment was terminated and evaluated. In this experiment there were used in addition to 30 control animals, which received exclusively normal feed, the following three groups of experimental animals:
1. 33 rats to which were administered daily 30 mg/kg of compound Ia mixed with the feed.
2. 36 rats to which were administered daily 90 mg/kg of compound Ia mixed with the feed.
3. 33 rats to which were administered daily 270 mg/kg of compound Ia mixed with the feed.
The feed mixture was adjusted weekly according to the body weight and the total food intake.

[2] = Triglyceride / lipid value in blood plasma of rats; type: in vivo, albino rats
Protocol: In order to detect this activity a dosage of compound Ia was administered five times per dosage to 5 male and 5 female albino rats weighing approximately 150 g by means of a probang within 2 days in intervals of in each case 18 and 6 hours. 18 hours after the last application 1-1,2 ml of blood plasma were removed retroorbitally from the experimental animals. The triglyceride value was determined by enzymatic cleavage of the triglyceride with subsequent determination of the resulting glycerine (colour reaction) by means of Periodchrom triglyceride GPO-PAP.

[3] = cited from earlier work
[4] = tested on: squamous metaplasia of the vaginal epithelium; assay: Antimetaplastic activity in ovarectomized rats (hormone-induced squamous metaplasia, vaginal smear); type: in vivo, female Holtzmann rats; settings: for Relative activity (antimetaplastic): all-trans vitamin A acid = 100%; for Antimetaplastic effect (average effective / protective dosage): oral, read 2 days after administration, area method of Behrens and Karber
Protocol: (C) The antimetaplastic activity of compound Ia was determined in rats according to the following method. Female Holtzmann rats weighing approximately 100 g were ovarectomized under Thiogenal narcosis after an adaptation period of 8 days and were used in the experiment after a further 14 days. In each case two animals were placed in a cage and had free access to feed which contained approximately 2000 IU of analytically determined vitamin A. Prior to the oral administration of the test compound the animals were treated subcutaneously each day for 6 successive days with the hormone mixture of 1 μg of estradiol benzoate and 250 μg of testosterone propionate dissolved in 0.1 ml of sesame oil. The parenteral hormone administration led to the formation of a clear granular stage in the vaginal smear, i.e. a squamous metaplasia. 2 days after the oral administration of the test substance the result of the reaction was again read off on the vaginal epithelium. The area method according to Behrens and Karber was employed to calculate the average effective dosages.

[5] = tested on: Trachea (rats)/hyperplasia induced by dimethylbenzanthracene; assay: Chemically-induced precancerous tissue changes in trachea organ culture (dimethylbenzanthracene-induced hyperplasia); type: cell-based; settings: Rattus norvegicus, read-out: Mitotic index, relative to dimethylbenzanthracene control; for activity at 1 µM: 10^-6 M; for activity at 0.1 µM: 10^-7 M; for activity at 0.01 µM: 10^-8 M; for activity at 0.001 µM: 10^-9 M
Protocol: (§1) (D) The activity of compound Ia on chemically-induced precancerous tissue changes was, furthermore, determined in vitro according to the following method. In this experiment prostate glands of mice and trachea of rats cultivated in organ cultures served as the experimental models. In tissues of organ cultures carcinogenic substances bring about after a short period precancerous changes in the form hyperplasias as well as metaplasias and dysplasias. Retinoids, which are administered simultaneously with the carcinogenic compounds or after these, prevent the hyperplasia or metaplasia and dysplasia or even cause these to regress.
(§2) The prostate glands consist of alveoli lined with one row of secretory cells and separated by a thin connective tissue. They were removed from mice aged 3-5 months and cut into lobules of approximately 1.5×1.5×2.0 mm. At least six of these lobules were placed on filter paper and transferred on a metal lattice into small culture chambers. Two of these culture chambers were enclosed in a Petri dish lined with a moist filter paper. The culture chambers were filled with nutrient medium up to the height of the lattice so that the explants were moistened well with the nutrient medium, but were not immersed in this. At the nutrient medium there was used customary Medium 199 supplemented by the addition of 15% serum from newly born calves. The carcinogen (3-methylcholanthrene) was added to this prior to the incubation in a concentration of 4-5 μg/ml of nutrient medium. The cultures were then incubated at 37.5° C. During the incubation they were kept in a Macintosh flask which was gassed with a mixture of 5% CO2 +95% oxygen. In a first series of experiments the carcinogen and compound Ia were combined and the tissue was cultivated for 10-12 days. In a second series the explants were pre-treated with the carcinogen for 10-12 days and thereafter placed in a nutrient medium, which only contained compound Ia, for 4-7 days. The concentration of compound Ia lay in the range of 10^-9 to 10^-6 Mol.
Trachea of rats are cultivated in the same manner and treated with dimethylbenzanthracene as the carcinogen. The mitotic index serves as the parameter of the hyperplasia. With retinoid the mitotic index and the hyperplasias, respectively, are smaller. The results are compiled in Tables IV (prostate) and V (trachea).

[6] = tested on: Prostate (mouse)/hyperplasia induced by methylcholanthrene; assay: Chemically-induced precancerous tissue changes in prostate gland organ culture (methylcholanthrene-induced hyperplasia); type: cell-based; settings: read-out: Hyperplastic alveoli, relative to methylcholanthrene control; for activity at 1 µM: 10^-6 M; for activity at 0.1 µM: 10^-7 M; for activity at 0.01 µM: 10^-8 M; for activity at 0.001 µM: 10^-9 M
Protocol: as §1, §2
The activity of compound Ia is quantified by counting the normal and hyperplastic alveoli in sections of the explant. The results are expressed in percentages of hyperplastic alveoli of the total number of alveoli, for example 120 hyperplastic alveoli out of a total of 200 correspond to 60%. In explants treated with retinoids the percentage is usually small. […] The percentage of hyperplastic alveoli is reduced to 20/60=33%.

[7] = tested on: transplantable chondrosarcoma of the rat; assay: Activity on the transplantable chondrosarcoma of the rat; type: in vivo, albino rats; settings: 400 mg/kg p.o.
Protocol: (B) The activity of compond Ia on tumors was, furthermore, determined on the transplantable chondrosarcoma of the rat according to the following method. The solid tumor of a donor animal was finely minced and suspended in phosphate-buffered sodium chloride solution. 0.5 ml of the 30% tumor suspension was implanted subcutaneously into albino rats. […] Each treatment group embraced 7 rats. Suspensions of compound Ia in arachis oil were administered orally five times per week for 4 weeks. The tumor areas were determined on days 1, 15 and 29. The largest (D) and the smallest (d) diameter of the tumors were determined with the aid of a vernier caliper and the product D·d was determined. The change in this area size was calculated in percentages.

[8] = Rydell et al. 1982; Kistler 1981; Loeliger et al. 1980; cited from earlier work
[9] = Tolerability and toxicity; type: in vivo; settings: given intraperitoneally and given orally
[10] = simultaneous treatment, dimethylbenzanthracene (mitotic index 2.6) = 100%
[11] = subsequent treatment, dimethylbenzanthracene (mitotic index 3.1) = 100%
[12] = simultaneous treatment, methylcholanthrene (47% hyperplastic alveoli) = 100%
[13] = subsequent treatment, methylcholanthrene (65% hyperplastic alveoli) = 100%

C/C(=C\c1ccccc1)c1ccc2c(c1)C(C)(C)CCC2(C)C [Compound Ia, 1,2,3,4-tetrahydro-1,1,4,4-tetramethyl-6-[(E)-alpha-methylstyryl]naphthalene]
% tumor-bearing rats ([1]; 30 mg/kg daily oral): 69.6%
Average number of tumors per rat ([1]; 30 mg/kg daily oral): 3.0
Average tumor volume per rat in mm^3 ([1]; 30 mg/kg daily oral): 4904 mm^3
% tumor-bearing rats, relative to control (100%) ([1]; 30 mg/kg daily oral): 88%
Average number of tumors per rat, relative to control (100%) ([1]; 30 mg/kg daily oral): 81%
Average tumor volume per rat, relative to control (100%) ([1]; 30 mg/kg daily oral): 77%
% tumor-bearing rats ([1]; 90 mg/kg daily oral): 63.8%
Average number of tumors per rat ([1]; 90 mg/kg daily oral): 1.8
Average tumor volume per rat in mm^3 ([1]; 90 mg/kg daily oral): 2879 mm^3
% tumor-bearing rats, relative to control (100%) ([1]; 90 mg/kg daily oral): 80%
Average number of tumors per rat, relative to control (100%) ([1]; 90 mg/kg daily oral): 48%
Average tumor volume per rat, relative to control (100%) ([1]; 90 mg/kg daily oral): 45%
% tumor-bearing rats ([1]; 270 mg/kg daily oral): 39.3%
Average number of tumors per rat ([1]; 270 mg/kg daily oral): 0.7
Average tumor volume per rat in mm^3 ([1]; 270 mg/kg daily oral): 543 mm^3
% tumor-bearing rats, relative to control (100%) ([1]; 270 mg/kg daily oral): 50%
Average number of tumors per rat, relative to control (100%) ([1]; 270 mg/kg daily oral): 18%
Average tumor volume per rat, relative to control (100%) ([1]; 270 mg/kg daily oral): 9%
Effect on the lipid value in blood plasma ([2]; as a sole therapeutically active retinoid): no increase in the lipid value in blood plasma
Lipid-lowering activity ([2]; blood plasma): possesses a lipid-lowering activity
Triglyceride value in blood plasma ([2]; female rats, 10 mg/kg by probang, five times within 2 days (control 69 ± 28)): 56 ± 25 mg/100 ml
Triglyceride value in blood plasma ([2]; female rats, 100 mg/kg by probang, five times within 2 days (control 69 ± 28)): 72 ± 18 mg/100 ml
Triglyceride value in blood plasma ([2]; female rats, 1000 mg/kg by probang, five times within 2 days (control 69 ± 28)): 30 ± 8 mg/100 ml
Triglyceride value in blood plasma ([2]; male rats, 10 mg/kg by probang, five times within 2 days (control 201 ± 39)): 158 ± 56 mg/100 ml
Triglyceride value in blood plasma ([2]; male rats, 100 mg/kg by probang, five times within 2 days (control 201 ± 39)): 173 ± 18 mg/100 ml
Triglyceride value in blood plasma ([2]; male rats, 1000 mg/kg by probang, five times within 2 days (control 201 ± 39)): 41 ± 19 mg/100 ml
Hypervitaminosis A phenomena ([3]; e.g. manifestations on skin and mucous membranes): does not exhibit, in particular, any hypervitaminosis A phenomena
Tolerability / toxic symptoms ([3]; in the therapeutically indicated dosages): well tolerated and that no toxic symptoms appear
Teratogenicity ([3]; in vivo): non-teratogenic
Skin irritation ([3]; skin): not irritating to the skin
Relative activity (antimetaplastic) [4]: 66.6%
Epithelium protection effect (=anti-metaplastic effect) reduced by the factor ([4]; compared with all-trans vitamin A acid): 0.67
Antimetaplastic effect (average effective / protective dosage) [4]: 53.6 µg
activity at 1 µM [5, 10]: 54%
activity at 0.1 µM [5, 10]: 46%
activity at 0.01 µM [5, 10]: 46%
activity at 0.001 µM [5, 10]: 104%
activity at 1 µM [5, 11]: 45%
activity at 0.1 µM [5, 11]: 70%
activity at 0.01 µM [5, 11]: 74%
activity at 0.001 µM [5, 11]: 75%
activity at 1 µM [6, 12]: 25%
activity at 0.1 µM [6, 12]: 46%
activity at 0.01 µM [6, 12]: 60%
activity at 0.001 µM [6, 12]: 90%
activity at 1 µM [6, 13]: 54%
activity at 0.1 µM [6, 13]: 94%
activity at 0.01 µM [6, 13]: 98%
activity at 0.001 µM [6, 13]: 100%
Tumor area in mm^2, Day 29 ([7]; five times per week for 4 weeks, Day 29 (control 5926)): 1694 mm^2
Change in tumor area, Day 29 ([7]; five times per week for 4 weeks, Day 29 vs Day 1 (control +394%)): +30%
Tumor area in mm^2, Day 1 ([7]; five times per week, Day 1): 1300 mm^2
Tumor area in mm^2, Day 15 after the commencement of treatment ([7]; five times per week, Day 15 (control 2880)): 1416 mm^2
Change in tumor area, Day 15 ([7]; five times per week, Day 15 vs Day 1 (control +140%)): +9%

CC1=C(/C=C/C(C)=C/C=C/C(C)=C/C(=O)O)C(C)(C)CCC1 [all-trans vitamin A acid, reference compound]
Relative activity (antimetaplastic) [4]: 100%
Antimetaplastic effect (average effective / protective dosage) [4]: 35.7 µg

CC(=Cc1ccccc1)c1ccc2c(c1)C(C)(C)CCC2(C)C [compound of formula I, 1,2,3,4-tetrahydro-1,1,4,4-tetramethyl-6-(alpha-methylstyryl)naphthalene]
Biological activity in preliminary screening tests [8]: biologically inactive
Toxicity [9]: relatively non-toxic
